For 28 compounds, IC50 and IC90 results are on record in ChEMBL document CHEMBL4483862, “Open-source discovery of chemical leads for next-generation chemoprotective antimalarials” (2018).

A word on the IC50: it is the midpoint of a concentration-inhibition curve. A word on the IC90: it is the point of the concentration-response curve where the effect stands at 90%.

The test system of the assay is Plasmodium berghei. Briefly: Luciferase/luciferin-expressing antifolate-resistant parasites were used to infect a culture of HepG2 cells that were pre-incubated with compounds. Infected hepatocytes emit light due to the luciferase reaction. Assay results are presented as the percent inhibition of light emission compared to control. […]. The format is functional. The conditions noted are these: sporozoite; for IC90: read-out: LUCIFERASE INFECTION ASSAY - IC90.

Turning to `Cc1cc(C(=O)CSc2nc3ccccc3[nH]2)c(C)n1CC1CCCO1` (stereo unspecified), the IC90 is 4.43 µM. For the setting “HEPG2TOX_HILL_SLOPE 3.03, HEPG2TOX_R_SQUARED 0.337, PBLUC_HILL_SLOPE 0.528, 1.10, PBLUC_R_SQUARED 0.856, 0.809, read-out: LUCIFERASE INFECTION ASSAY - IC50”, the half-inhibitory concentration (IC50) is 0.144 µM.

For the compound `Cc1nnsc1-c1onc(C)c1C(=O)Nc1cc(Cl)cc(Cl)c1`, the 90% effect concentration (IC90) was > 8.94 µM. In addition, for the setting “HEPG2TOX_HILL_SLOPE 2.99, HEPG2TOX_R_SQUARED 0.625, PBLUC_HILL_SLOPE 10.3, PBLUC_R_SQUARED 0.237, read-out: LUCIFERASE INFECTION ASSAY - IC50”, the IC50 came out at 8.32 µM.

Take `O=C(NNc1ncc(C(F)(F)F)cc1Cl)c1c(Cl)cccc1Cl`: the IC90 was > 8.58 µM. The 50% inhibitory concentration (IC50) (HEPG2TOX_HILL_SLOPE 3.04, HEPG2TOX_R_SQUARED 0.858, PBLUC_HILL_SLOPE 3.51, PBLUC_R_SQUARED 0.0313, read-out: LUCIFERASE INFECTION ASSAY - IC50) came to 6.25 µM.

Regarding `O=C(Nc1ccccc1C(=O)Nc1nnc(C(F)(F)F)s1)c1ccccc1Cl`, the IC90 was determined as 2.71 µM. The half-maximal inhibitory concentration (IC50) (HEPG2TOX_HILL_SLOPE 2.99, HEPG2TOX_R_SQUARED 0.762, PBLUC_HILL_SLOPE 9.09, PBLUC_R_SQUARED 0.594, read-out: LUCIFERASE INFECTION ASSAY - IC50) was 2.13 µM.

Regarding `Clc1ccc(-c2csc3ncnc(Sc4nnnn4C4CC4)c23)cc1`, the IC90 is > 10 µM. The IC50 (HEPG2TOX_HILL_SLOPE 2.99, HEPG2TOX_R_SQUARED 0.963, PBLUC_HILL_SLOPE 2.19, PBLUC_R_SQUARED 0.132, read-out: LUCIFERASE INFECTION ASSAY - IC50) was determined as 8.41 µM.

For the compound `CCOc1ccc(/C=N/NC(=O)c2cc3c(s2)CCCC3)c(O)c1`, the IC90 is > 10 µM. Under “HEPG2TOX_HILL_SLOPE 3.02, HEPG2TOX_R_SQUARED 0.79, PBLUC_HILL_SLOPE 4.8, PBLUC_R_SQUARED 0.349, read-out: LUCIFERASE INFECTION ASSAY - IC50”, the IC50 came out at 6.97 µM.

Turning to `CCN1C(=O)N(CCCc2cccnc2)C(=O)C12CCN(Cc1cnc(-c3ccccc3)s1)CC2`, the IC90 was > 6.74 µM. Where the note is “HEPG2TOX_HILL_SLOPE 2.98, HEPG2TOX_R_SQUARED 0.92, PBLUC_HILL_SLOPE 12.2, PBLUC_R_SQUARED 0.164, read-out: LUCIFERASE INFECTION ASSAY - IC50”, the IC50 is 6.3 µM.

With `Cc1noc(CSc2nnc(Nc3ccc(OC(F)(F)F)cc3)s2)n1`, the IC90 is > 10 µM. For the same compound, for the setting “HEPG2TOX_HILL_SLOPE 3.01, HEPG2TOX_R_SQUARED 0.966, PBLUC_HILL_SLOPE 1.72, PBLUC_R_SQUARED 0.424, read-out: LUCIFERASE INFECTION ASSAY - IC50”, the half-maximal inhibitory concentration (IC50) came to 4.45 µM.

Take `CN(C)c1ccc(CNc2nccc3nc(-c4ccc(F)c(F)c4)[nH]c23)cc1`: the concentration for an effect of 90% (IC90) was found to be 9.24 µM. For the same compound, the IC50 (HEPG2TOX_HILL_SLOPE 2.98, HEPG2TOX_R_SQUARED 0.951, PBLUC_HILL_SLOPE 0.962, PBLUC_R_SQUARED 0.864, read-out: LUCIFERASE INFECTION ASSAY - IC50) stood at 0.941 µM.

Take `CCOC(=O)c1sc2ncnc(NCCC(O)(c3ccc(C)o3)C(F)(F)F)c2c1C` (stereo unspecified): the IC90 was 3.68 µM. Besides, the 50% inhibitory concentration (IC50) (HEPG2TOX_HILL_SLOPE 2.98, HEPG2TOX_R_SQUARED 0.521, PBLUC_HILL_SLOPE 13.8, PBLUC_R_SQUARED 0.46, read-out: LUCIFERASE INFECTION ASSAY - IC50) turned out to be 3.14 µM.

Regarding `O=C(Nn1cn[nH]c1=S)c1ccc2ccccc2n1`, the 90% effect concentration (IC90) was > 10 µM. Also, the half-maximal inhibitory concentration (IC50) (HEPG2TOX_HILL_SLOPE 3, HEPG2TOX_R_SQUARED 0.551, PBLUC_HILL_SLOPE 3.2, PBLUC_R_SQUARED 0.429, read-out: LUCIFERASE INFECTION ASSAY - IC50) worked out at 5.8 µM.

`Cc1ccc(Sc2ccc(NC(=O)C3CCN(C(=O)c4ccoc4)CC3)cc2)c(C)c1`: the 90% effect concentration (IC90) came out at 9.64 µM. In addition, the 50% inhibitory concentration (IC50) (HEPG2TOX_HILL_SLOPE 3.01, HEPG2TOX_R_SQUARED 0.581, PBLUC_HILL_SLOPE 14.8, 16.7, PBLUC_R_SQUARED 0.181, 0.0620, read-out: LUCIFERASE INFECTION ASSAY - IC50) amounted to 9.11 µM.

`Cc1ccccc1C(=O)Nc1nc2ccccn2c1C(=O)NC1CCCCC1`: the IC90 is > 8.77 µM. For the same compound, the half-inhibitory concentration (IC50) (HEPG2TOX_HILL_SLOPE 2.99, HEPG2TOX_R_SQUARED 0.96, PBLUC_HILL_SLOPE 20.4, PBLUC_R_SQUARED 0.198, read-out: LUCIFERASE INFECTION ASSAY - IC50) stood at 7.88 µM.

For the compound `CCN(CC)C(=O)c1ccc(Nc2nc(C(F)(F)F)nc3ccccc23)cc1`, the IC90 is > 10 µM. Besides, the IC50 (HEPG2TOX_HILL_SLOPE 3.04, HEPG2TOX_R_SQUARED 0.82, PBLUC_HILL_SLOPE 1.45, PBLUC_R_SQUARED 0.471, read-out: LUCIFERASE INFECTION ASSAY - IC50) came out at 5.81 µM.

`CCc1cccc2c(C(=O)COC(=O)C34CC5CC(CC(O)(C5)C3)C4)c[nH]c12`: the 90% effect concentration (IC90) worked out at 4.59 µM. Further, the IC50 (HEPG2TOX_HILL_SLOPE 2.99, HEPG2TOX_R_SQUARED 0.981, PBLUC_HILL_SLOPE 3.51, PBLUC_R_SQUARED 0.785, read-out: LUCIFERASE INFECTION ASSAY - IC50) is 2.46 µM.

For `Cc1nc2ccc(N/N=C3\C=CC(=O)c4ncccc43)cc2s1`, the IC90 turned out to be 4.05 µM. Further, the half-inhibitory concentration (IC50) (HEPG2TOX_HILL_SLOPE 2.99, HEPG2TOX_R_SQUARED 0.974, PBLUC_HILL_SLOPE 13.8, PBLUC_R_SQUARED 0.408, read-out: LUCIFERASE INFECTION ASSAY - IC50) is 3.46 µM.

As to `Cn1c(-c2ccccc2)nc2cnc(Nc3cccc(OC(F)(F)F)c3)cc21`, the IC90 stood at 2.38 µM. Further, the IC50 (HEPG2TOX_HILL_SLOPE 2.98, HEPG2TOX_R_SQUARED 0.826, PBLUC_HILL_SLOPE 1.94, PBLUC_R_SQUARED 0.665, read-out: LUCIFERASE INFECTION ASSAY - IC50) was 0.764 µM.

On to `Clc1ccc(SCc2cc(N3CCCCC3)nc(-c3ccccn3)n2)cc1`, for which the concentration for an effect of 90% (IC90) was 2.67 µM. The IC50 (HEPG2TOX_HILL_SLOPE 3.02, HEPG2TOX_R_SQUARED 0.983, PBLUC_HILL_SLOPE 17.6, PBLUC_R_SQUARED 0.462, read-out: LUCIFERASE INFECTION ASSAY - IC50) came out at 2.35 µM.

On to `Cc1nccnc1-c1ccnn1C(=O)Nc1cc(Cl)cc(Cl)c1`, for which the concentration for an effect of 90% (IC90) is 0.481 µM. In addition, the 50% inhibitory concentration (IC50) (HEPG2TOX_HILL_SLOPE 3.03, HEPG2TOX_R_SQUARED 0.982, PBLUC_HILL_SLOPE 8.5, PBLUC_R_SQUARED 0.804, read-out: LUCIFERASE INFECTION ASSAY - IC50) turned out to be 0.372 µM.

Regarding `Cc1cc(C(=O)Cn2nnc3ccccc3c2=O)c(C)n1-c1ccccc1`, the IC90 came out at 0.0451 µM. For the same compound, where the note is “HEPG2TOX_HILL_SLOPE 3.03, HEPG2TOX_R_SQUARED 0.216, PBLUC_HILL_SLOPE 10.9, PBLUC_R_SQUARED 0.324, read-out: LUCIFERASE INFECTION ASSAY - IC50”, the concentration for half-maximal inhibition (IC50) worked out at 0.0369 µM.

`Cc1nc2n(C)c3ccccc3[n+]2c(C)c1C`: the IC90 was > 10 µM. For the same compound, the half-maximal inhibitory concentration (IC50) (HEPG2TOX_HILL_SLOPE 3.01, HEPG2TOX_R_SQUARED 0.767, PBLUC_HILL_SLOPE 4.79, PBLUC_R_SQUARED 0.113, read-out: LUCIFERASE INFECTION ASSAY - IC50) worked out at 6.7 µM.

In the case of `Cc1cccc(OC2=C(Cl)C(=O)c3ccccc3C2=O)c1`, the 90% effect concentration (IC90) was > 11 µM. Besides, the half-maximal inhibitory concentration (IC50) (HEPG2TOX_HILL_SLOPE 2.98, HEPG2TOX_R_SQUARED 0.916, PBLUC_HILL_SLOPE 1.18, PBLUC_R_SQUARED 0.608, read-out: LUCIFERASE INFECTION ASSAY - IC50) was found to be 5.41 µM.

Take `COc1ccc(-c2cnc3ccc(-c4cccc(F)c4)nn23)cc1OC`: the IC90 stood at 1.27 µM. Further, the IC50 (HEPG2TOX_HILL_SLOPE 3.03, HEPG2TOX_R_SQUARED 0.965, PBLUC_HILL_SLOPE 7.81, PBLUC_R_SQUARED 0.531, read-out: LUCIFERASE INFECTION ASSAY - IC50) came to 0.958 µM.

On to `COc1ccc(-c2cnc3cnc(-c4ccco4)cn23)cc1`, for which the IC90 is 7.67 µM. Further, the concentration for half-maximal inhibition (IC50) (HEPG2TOX_HILL_SLOPE 2.99, HEPG2TOX_R_SQUARED 0.923, PBLUC_HILL_SLOPE 3.57, PBLUC_R_SQUARED 0.717, read-out: LUCIFERASE INFECTION ASSAY - IC50) was 4.15 µM.

Turning to `CC(=O)Nc1ccc(-c2cnc3ccc(-c4ccccc4)nn23)cc1`, the 90% effect concentration (IC90) worked out at 3.8 µM. Also, the half-maximal inhibitory concentration (IC50) (HEPG2TOX_HILL_SLOPE 2.97, HEPG2TOX_R_SQUARED 0.938, PBLUC_HILL_SLOPE 2.21, PBLUC_R_SQUARED 0.595, read-out: LUCIFERASE INFECTION ASSAY - IC50) came to 1.4 µM.

As for `Cc1nc2ncnn2c(Nc2cccc(Cl)c2C)c1Cl`, the IC90 was > 10.7 µM. The concentration for half-maximal inhibition (IC50) (HEPG2TOX_HILL_SLOPE 3, HEPG2TOX_R_SQUARED 0.869, PBLUC_HILL_SLOPE 3.03, PBLUC_R_SQUARED 0.114, read-out: LUCIFERASE INFECTION ASSAY - IC50) was found to be 5.55 µM.

For the compound `CN(CC(=O)Nc1ccccc1N1CCCCCC1)S(=O)(=O)c1ccccc1C#N`, the IC90 was > 10 µM. Further, under “HEPG2TOX_HILL_SLOPE 3.04, HEPG2TOX_R_SQUARED 0.862, PBLUC_HILL_SLOPE 1.2, PBLUC_R_SQUARED 0.365, read-out: LUCIFERASE INFECTION ASSAY - IC50”, the half-maximal inhibitory concentration (IC50) turned out to be 9.69 µM.

For `COc1cc2c(C#N)c(N3CCN(c4ccccc4OC)CC3)nc(N)c2c(N)n1`, the IC90 stood at 4.7 µM. Moreover, the 50% inhibitory concentration (IC50) (HEPG2TOX_HILL_SLOPE 3.01, HEPG2TOX_R_SQUARED 0.942, PBLUC_HILL_SLOPE 1.46, PBLUC_R_SQUARED 0.909, read-out: LUCIFERASE INFECTION ASSAY - IC50) worked out at 1.04 µM.
